# According to patent publication EP2535049A1 (Proyecto de Biomedicina Cima, S.L., priority 2011, dated 2012):
# Several values for one entry are separate records, joined by “and”; a condition that tells them apart may be missing. Identical values can stand only once. Entries after “also recorded” stand apart in the source; their conditions may differ. Marks after values point to notes of the source that are not given here.
# Assays:
# [1] = Serum and brain levels of tadalafil after oral administration (HPLC-MS); type: in vivo, Mouse; conditions: for logBB (brain): average of logBB data from Ctx, Str and Hip, n=6, spread = Standard Deviation
# Description: BB is the ratio of brain versus serum concentration. […] In addition, considering values in the three brain regions, the compound distribution looks quite uniform. Table 2. Blood-brain barrier permeability, as logBB, for Tadalafil
# For analysis samples were prepared as follows: • 100 µl of serum were treated with 300 µl of 1% formic acid in acetonitrile. Mixture was vortexed for 5 minutes. The supernatant after centrifugation was filtered using a HybridSPE™ (Supelco, Bellefonte, USA) cartridge and the eluate was dried under an air stream. The powder was reconstituted in 100 µl of 50:50 (v/v) ammonium formate (pH=3):acetonitrile. After centrifugation the supernatant was used for analysis. • 100 mg of brain sample were treated with 600 µl of 1% formic acid in acetonitrile. The mixture was sonicated for 10 seconds and centrifuged for 5 minutes. The supernatant after centrifugation was filtered using a HybridSPE™ (Supelco, Bellefonte, USA) cartridge and the eluate was dried under an air stream. The powder was reconstituted in 100 µl of 50:50 (v/v) ammonium formate (pH=3):acetonitrile. After centrifugation the supernatant was used for analysis.
# pTau = experiment: Immunohistochemistry of pTau (PHF-1, AT8) in J20 mice; type: in vivo; conditions: J20 mice treated for 10 weeks
# Description: Results were compared with those obtained from age-matched negative littermates (controls). To test the effect of the PDE5 inhibitors in cognition capacity related to aging, a second treatment was carried out using 10-12 month-old non-transgenic (wild type) mice on an inbred C57/B6xSJL genetic background.
# Twenty four hours after the fear conditioning test, animals (n=5, per group) were sacrificed and the brains removed for biochemical studies. The cortex and hippocampus were dissected, homogenized, and processed as described below for subsequent western blot analysis. Under xylazine/ketamine anesthesia, animals (n=4 per group) were perfused transcardially with saline and 4% paraformaldehyde in phosphate buffer (PB). After perfusion, brains were removed, post-fixed in the same fixative solution for 1 h at room temperature and cryoprotected in 30% sucrose solution in PB overnight at 4 °C. […]
# For p-tau staining, slides were incubated in blocking solution (3% milk in TBS) and incubated overnight with primary antibody AT8 (1:50 v/v, Pierce, Woburn, MA, USA) or PHF1 (1:100 v/v, Dr. Peter Davies, Albert Einstein College, Bronx, NY, USA) at 4 °C. […] Fluorescence signals were detected with confocal microscope LSM 510 Meta (Carl Zeiss, Germany); objective Plan-neofluar 40x/1.3 oil DIC. Sections were evaluated in Z-series (0.4 microm steps) using LSM 510 Meta software.
# [2] = EMEA scientific discussion for Cialis (WC500026314); cited from earlier work
# [3] = system: central nervous system (CNS) function; conditions: doses ≤100 mg/kg orally; EMEA assessment report for Adcirca (WC500069602); cited from earlier work
# [4] = quoted from WO2010/074783, page 109; cited from earlier work
# [5] = system: maternal-separated rat pups; conditions: Baek et al. (2011); cited from earlier work
# [6] = system: rat model of embolic stroke; conditions: Zhang et al. (2006); cited from earlier work
# gerbils = conditions: Ko et al. (2009); cited from earlier work
# [7] = BB = ratio of brain versus serum concentration, n=6 treated mice, (Standard Deviation)
# [8] = concentration of tadalafil 90 minutes after oral administration of Cialis (15 mg/Kg), individual mice
smiles,measurement,setting,value
"CN1CC(=O)N2[C@H](c3ccc4c(c3)OCO4)c3[nH]c4ccccc4c3C[C@@H]2C1=O [tadalafil, (6R-trans)-6-(1,3-benzodioxol-5-yl)-2,3,6,7,12,12a-hexahydro-2-methyl-pyrazino [1',2':1,6] pyrido [3,4-b]indole-1,4-dione]",logBB (Ctx),[1]; [7],-0.89 (0.16)^b
same,logBB (Hip),[1]; [7],-0.81 (0.17)^b
same,logBB (Str),[1]; [7],-0.98 (0.13)^b
same,Hip,"[1]; Hippocampus, 90 minutes after oral administration of Cialis (15 mg/Kg), individual mice",0.45 µM and 0.91 µM and 1.54 µM and 2.19 µM and 1.48 µM and 1.35 µM
same,Ctx,"[1]; Prefrontal Cortex, 90 minutes after oral administration of Cialis (15 mg/Kg), individual mice",0.61 µM and 1.25 µM and 1.22 µM and 1.35 µM and 0.73 µM and 0.91 µM
same,Str,"[1]; Striatum, 90 minutes after oral administration of Cialis (15 mg/Kg), individual mice",0.39 µM and 0.82 µM and 1.09 µM (2×) and 0.72 µM and 0.93 µM
same,logBB (brain),[1],-0.89+/-0.09
same,logBB (brain),[1]; listed as Tadalafil,-0.89 (0.09)^b
same,Serum (µM),[1]; [8],"4,95 µM"
same,concentration at 90 min,[1]; [8],9.65 µM and 7.27 µM and 10.23 µM and 8.10 µM
same,Kp at 90 min,"[1]; mouse, oral, 15 mg/Kg, from logBB of the three brain areas",~0.12
same,concentration at 90 min,"[1]; mouse, serum, oral, 15 mg/Kg, concentration of tadalafil 90 minutes after oral administration of Cialis (15 mg/Kg), individual mice",6.53 µM
same,"pTau levels, PHF-1 anti-p-Tau Ser-396/404 antibody labeling",pTau; hippocampal and cortical slices,decrease in pTau levels; also recorded: much more marked than in animals treated with sildenafil
same,"pTau pathology, anti-pTau antibody recognizing Ser202 and Thr205 (AT8) labeling",pTau; hippocampus slices,lesser pTau pathology in animals treated with tadalafil than with sildenafil
same,observed in the central nervous system,[2],not observed
same,effects on central nervous system (CNS) function,[3],no effects
same,ability to cross the BBB,[4],unable to cross the BBB
same,"depressive symptoms, memory impairment, apoptosis and cell proliferation in the hippocampus",[5],"improves depressive symptoms, ameliorates memory impairment, as well as suppresses apoptosis and enhances cell proliferation"
same,neurological functional recovery,[6],improves neurological functional recovery
same,short-term memory,gerbils,improves short-term memory
